# Structures can show the parent of a compound that is named as a salt.
# Biological target: T1, human GluN1/GluN2B NMDA receptors (Homo sapiens, UniProt Q13224)
# T1 construct: expressed in transfected cells
# Test: Calcium flux (FLIPR) assay on cloned human NR1/GluN2B ion channels expressed in mammalian cells (standard and HTS variants)
# Assay type: cell-based
# Details: cells expressing human GluN1/GluN2B, glutamate and glycine co-agonists
# Summary of the method: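 Tet-On-induced stable cell line loaded with Calcium 5 dye; compounds applied 5 min (agonist check), then glutamate at ~EC40 plus 10 μM glycine for 5 min. Buffer pH 7.4 with 0.5 mM MgCl2 in dye loading (standard) or 1.5 mM (HTS). FLIPR fluorescence normalized to control wells; (+)MK-801 as antagonist control.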
# T1 sequence (Q13224 27-1484, other chains not shown): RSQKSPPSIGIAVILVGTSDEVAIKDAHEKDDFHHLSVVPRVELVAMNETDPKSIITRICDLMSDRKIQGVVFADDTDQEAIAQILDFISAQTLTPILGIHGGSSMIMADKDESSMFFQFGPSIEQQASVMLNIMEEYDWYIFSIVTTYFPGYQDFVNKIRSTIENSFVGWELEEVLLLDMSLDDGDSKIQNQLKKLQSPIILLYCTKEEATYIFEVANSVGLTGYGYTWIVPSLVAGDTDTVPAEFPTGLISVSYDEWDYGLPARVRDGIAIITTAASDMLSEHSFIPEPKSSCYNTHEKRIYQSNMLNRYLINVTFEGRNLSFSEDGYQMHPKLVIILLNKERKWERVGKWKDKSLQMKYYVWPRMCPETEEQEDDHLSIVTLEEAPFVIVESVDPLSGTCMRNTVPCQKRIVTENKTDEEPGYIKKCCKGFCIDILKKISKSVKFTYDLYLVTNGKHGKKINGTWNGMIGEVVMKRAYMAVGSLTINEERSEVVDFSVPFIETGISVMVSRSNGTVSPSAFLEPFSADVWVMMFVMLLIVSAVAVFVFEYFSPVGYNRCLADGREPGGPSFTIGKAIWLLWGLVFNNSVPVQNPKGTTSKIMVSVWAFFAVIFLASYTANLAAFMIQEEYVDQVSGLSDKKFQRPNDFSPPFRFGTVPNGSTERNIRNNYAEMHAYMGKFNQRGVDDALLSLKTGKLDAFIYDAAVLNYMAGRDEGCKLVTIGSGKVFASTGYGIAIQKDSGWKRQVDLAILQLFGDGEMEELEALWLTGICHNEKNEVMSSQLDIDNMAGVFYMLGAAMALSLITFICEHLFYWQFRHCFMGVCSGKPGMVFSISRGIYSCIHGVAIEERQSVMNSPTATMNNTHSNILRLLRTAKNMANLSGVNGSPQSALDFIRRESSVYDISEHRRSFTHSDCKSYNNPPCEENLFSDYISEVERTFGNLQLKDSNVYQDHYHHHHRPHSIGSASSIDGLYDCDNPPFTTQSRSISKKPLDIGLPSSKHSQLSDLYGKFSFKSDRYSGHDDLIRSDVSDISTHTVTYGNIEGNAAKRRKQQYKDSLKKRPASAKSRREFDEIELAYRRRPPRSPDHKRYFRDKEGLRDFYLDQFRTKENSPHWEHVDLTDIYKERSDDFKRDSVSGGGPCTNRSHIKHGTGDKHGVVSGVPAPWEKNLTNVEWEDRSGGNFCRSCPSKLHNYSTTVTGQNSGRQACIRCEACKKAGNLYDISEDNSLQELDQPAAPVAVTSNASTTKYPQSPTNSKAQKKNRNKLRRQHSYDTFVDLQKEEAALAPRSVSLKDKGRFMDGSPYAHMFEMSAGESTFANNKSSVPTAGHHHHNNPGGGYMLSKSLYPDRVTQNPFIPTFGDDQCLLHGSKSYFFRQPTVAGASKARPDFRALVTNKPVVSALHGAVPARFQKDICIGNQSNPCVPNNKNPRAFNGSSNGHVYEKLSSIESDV
row,SMILES,IC50
1,"Cc1c(F)ccc(-c2cnc3cnn(Cc4cncc(F)c4)c3c2)c1F [Example 249, 6-(2,4-Difluoro-3-methyl-phenyl)-1-[(5-fluoro-3-pyridyl)methyl]pyrazolo[4,3-b]pyridine trifluoroacetate salt]",40 nM
2,"COc1cccc(-c2cnc3cnn(Cc4nc(C)no4)c3c2)c1 [Example 81, 5-[[6-(3-Methoxyphenyl)pyrazolo[4,3-b]pyridin-1-yl]methyl]-3-methyl-1,2,4-oxadiazole]",2310 nM
3,"Fc1cc(F)cc(Cn2ncc3ncc(-c4ccc(F)c(OC(F)F)c4)cc32)c1 [Example 30, 6-[3-(Difluoromethoxy)-4-fluoro-phenyl]-1-[(3,5-difluorophenyl)methyl]pyrazolo[4,3-b]pyridine]",536 nM
4,"N#Cc1cncc(Cn2ncc3ncc(-c4cccc(C(F)(F)F)c4)cc32)c1 [Example 3, 5-[[6-[3-(Trifluoromethyl)phenyl]pyrazolo[4,3-b]pyridin-1-yl]methyl]pyridine-3-carbonitrile]",483 nM
5,"COc1cncc(Cn2ncc3ncc(-c4ccc(F)c(C(C)(F)F)c4)cc32)c1 [Example 220, 6-[3-(1,1-Difluoroethyl)-4-fluoro-phenyl]-1-[(5-methoxy-3-pyridyl)methyl]pyrazolo[4,3-b]pyridine]",89 nM
6,"Cc1cncc(Cn2ncc3ncc(-c4ccc(F)c(C)c4F)cc32)c1 [Example 246, 6-(2,4-Difluoro-3-methyl-phenyl)-1-[(5-methyl-3-pyridyl)methyl]pyrazolo[4,3-b]pyridine]",52 nM
7,"FC(F)(F)c1cccc(-c2cnc3cnn(Cc4cnccn4)c3c2)c1 [Example 5, 1-(Pyrazin-2-ylmethyl)-6-[3-(trifluoromethyl)phenyl]pyrazolo[4,3-b]pyridine dihydrochloride salt]",237 nM
8,"FC(F)(F)c1cccc(-c2cnc3cnn(Cc4ccnnc4)c3c2)c1 [Example 254, 1-(Pyridazin-4-ylmethyl)-6-[3-(trifluoromethyl)phenyl]pyrazolo[4,3-b]pyridine]",548 nM
9,"Cc1csc(-c2cnc3cnn(Cc4cccnc4)c3c2)c1 [Example 137, 6-(4-Methyl-2-thienyl)-1-(3-pyridylmethyl)pyrazolo[4,3-b]pyridine]",116 nM
10,"Fc1ccc(Cn2ncc3ncc(-c4ccc(Cl)c(Cl)c4)cc32)cn1 [Example 214, 6-(3,4-Dichlorophenyl)-1-[(6-fluoro-3-pyridyl)methyl]pyrazolo[4,3-b]pyridine]",1910 nM
11,"FC(F)(F)c1cccc(-c2cnc3cnn(Cc4cocn4)c3c2)c1 [Example 46, 4-[[6-[3-(Trifluoromethyl)phenyl]pyrazolo[4,3-b]pyridin-1-yl]methyl]oxazole]",538 nM
12,"Cc1cc(Cn2ncc3ncc(-c4ccc(Cl)c(OC(F)F)c4)cc32)no1 [Example 62, 3-[[6-[4-Chloro-3-(difluoromethoxy)phenyl]pyrazolo[4,3-b]pyridin-1-yl]methyl]-5-methyl-isoxazole]",159 nM
13,"N#Cc1cccc(Cn2ncc3ncc(-c4ccc(F)c(OC(F)F)c4)cc32)c1 [Example 29, 3-[[6-[3-(Difluoromethoxy)-4-fluoro-phenyl]pyrazolo[4,3-b]pyridin-1-yl]methyl]benzonitrile]",65 nM
14,"N#Cc1cncc(Cn2ncc3ncc(-c4ccc(F)c(OC(F)F)c4)cc32)c1 [Example 226, 5-[[6-[3-(Difluoromethoxy)-4-fluoro-phenyl]pyrazolo[4,3-b]pyridin-1-yl]methyl]pyridine-3-carbonitrile]",68 nM
15,"Cc1cc(-c2cnc3cnn(Cc4nnc(C(F)(F)F)o4)c3c2)ccc1F [Example 91, 2-[[6-(4-Fluoro-3-methyl-phenyl)pyrazolo[4,3-b]pyridin-1-yl]methyl]-5-(trifluoromethyl)-1,3,4-oxadiazole]",145 nM
16,"Cc1ccncc1Cn1ncc2ncc(-c3cc(F)cc(F)c3)cc21 [Example 184, 6-(3,5-Difluorophenyl)-1-[(4-methyl-3-pyridyl)methyl]pyrazolo[4,3-b]pyridine trifluoroacetate salt]",68 nM
17,"CC(F)(F)c1cc(-c2cnc3cnn(Cc4cncc(Cl)c4)c3c2)ccc1F [Example 221, 1-[(5-Chloro-3-pyridyl)methyl]-6-[3-(1,1-difluoroethyl)-4-fluoro-phenyl]pyrazolo[4,3-b]pyridine]",64 nM
18,"Cc1cc(Cn2ncc3ncc(-c4ccc(F)cc4)cc32)on1 [Example 42, 5-[[6-(4-Fluorophenyl)pyrazolo[4,3-b]pyridin-1-yl]methyl]-3-methyl-isoxazole]",475 nM
19,"Cc1nnc(Cn2nc(C)c3ncc(-c4ccc(F)c(C(F)F)c4)cc32)s1 [Example 124, 2-[[6-[3-(Difluoromethyl)-4-fluoro-phenyl]-3-methyl-pyrazolo[4,3-b]pyridin-1-yl]methyl]-5-methyl-1,3,4-thiadiazole]",66 nM
20,"Fc1cncc(Cn2ncc3ncc(-c4ccc(F)c(OC(F)F)c4)cc32)c1 [Example 225, 6-[3-(Difluoromethoxy)-4-fluoro-phenyl]-1-[(5-fluoro-3-pyridyl)methyl]pyrazolo[4,3-b]pyridine]",39 nM
21,"CNc1nnc(Cn2ncc3ncc(-c4ccc(F)c(OC(F)F)c4)cc32)s1 [Example 15, 5-[[6-[3-(Difluoromethoxy)-4-fluoro-phenyl]pyrazolo[4,3-b]pyridin-1-yl]methyl]-N-methyl-1,3,4-thiadiazol-2-amine]",> 2990 nM
22,"Fc1cc(-c2cnc3cnn(Cc4cncc(OC(F)F)c4)c3c2)cc(F)c1F [Example 253, 1-[[5-(Difluoromethoxy)-3-pyridyl]methyl]-6-(3,4,5-trifluorophenyl)pyrazolo[4,3-b]pyridine]",980 nM
23,"Cc1nnc(Cn2ncc3ncc(-c4cccc(C(F)(F)F)c4)cc32)o1 [Example 85, 2-Methyl-5-[[6-[3-(trifluoromethyl)phenyl]pyrazolo[4,3-b]pyridin-1-yl]methyl]-1,3,4-oxadiazole]",143 nM
24,"COc1cncc(Cn2ncc3ncc(-c4ccc(F)c(C(F)(F)F)c4)cc32)c1 [Example 234, 6-[4-Fluoro-3-(trifluoromethyl)phenyl]-1-[(5-methoxy-3-pyridyl)methyl]pyrazolo[4,3-b]pyridine]",92 nM
25,"CC(F)(F)c1cccc(-c2cnc3cnn(Cc4cccnn4)c3c2)c1 [Example 257, 6-[3-(1,1-Difluoroethyl)phenyl]-1-(pyridazin-3-ylmethyl)pyrazolo[4,3-b]pyridine]",110 nM

# Results, then the compound that gave them:
row,IC50,SMILES
1,177 nM,"COc1cccc(Cn2ncc3ncc(-c4ccc(F)c(C(F)F)c4)cc32)n1 [Example 205, 6-[3-(Difluoromethyl)-4-fluoro-phenyl]-1-[(6-methoxy-2-pyridyl)methyl]pyrazolo[4,3-b]pyridine]"
2,> 10000 nM,"Cc1ncc(Cn2ncc3ncc(-c4ccc(F)c(F)c4)cc32)cn1 [Example 285, 6-(3,4-Difluorophenyl)-1-[(2-methylpyrimidin-5-yl)methyl]pyrazolo[4,3-b]pyridine]"
3,30 nM,"Cc1cc(-c2cnc3cnn(Cc4cccnn4)c3c2)ccc1F [Example 259, 6-(4-Fluoro-3-methyl-phenyl)-1-(pyridazin-3-ylmethyl)pyrazolo[4,3-b]pyridine trifluoroacetate salt]"
4,138 nM,"CCc1nnc(Cn2ncc3ncc(-c4ccc(F)c(C(F)F)c4)cc32)s1 [Example 125, 2-[[6-[3-(Difluoromethyl)-4-fluoro-phenyl]pyrazolo[4,3-b]pyridin-1-yl]methyl]-5-ethyl-1,3,4-thiadiazole]"
5,273 nM,"Cc1ccc(Cn2ncc3ncc(-c4ccc(F)c(C(F)F)c4)cc32)nn1 [Example 262, 6-[3-(Difluoromethyl)-4-fluoro-phenyl]-1-[(6-methylpyridazin-3-yl)methyl]pyrazolo[4,3-b]pyridine]"
6,111 nM,"Cn1cnnc1Cn1ncc2ncc(-c3ccc(F)c(C(F)F)c3)cc21 [Example 74, 6-[3-(Difluoromethyl)-4-fluoro-phenyl]-1-[(4-methyl-1,2,4-triazol-3-yl)methyl]pyrazolo[4,3-b]pyridine]"
7,1620 nM,"CNc1nnc(Cn2ncc3ncc(-c4ccc(F)c(C(F)F)c4)cc32)s1 [Example 126, 5-((6-(3-(difluoromethyl)-4-fluorophenyl)-1H-pyrazolo[4,3-b]pyridin-1-yl)methyl)-N-methyl-1,3,4-thiadiazol-2-amine]"
8,182 nM,"COc1cc(Cn2ncc3ncc(-c4ccc(F)c(C(F)F)c4)cc32)ncn1 [Example 288, 6-[3-(Difluoromethyl)-4-fluoro-phenyl]-1-[(6-methoxypyrimidin-4-yl)methyl]pyrazolo[4,3-b]pyridine]"
9,123 nM,"Fc1ccc(-c2cnc3cnn(Cc4nnc(C5CC5)s4)c3c2)cc1C(F)F [Example 130, 2-Cyclopropyl-5-[[6-[3-(difluoromethyl)-4-fluoro-phenyl]pyrazolo[4,3-b]pyridin-1-yl]methyl]-1,3,4-thiadiazole]"
10,350 nM,"COc1cc(Cn2ncc3ncc(-c4ccc(F)c(OC(F)F)c4)cc32)ncn1 [Example 289, 6-[3-(Difluoromethoxy)-4-fluoro-phenyl]-1-[(6-methoxypyrimidin-4-yl)methyl]pyrazolo[4,3-b]pyridine]"
11,23 nM,"Fc1ccc(-c2cnc3cnn(Cc4ccon4)c3c2)cc1C(F)F [Example 51, 3-[[6-[3-(Difluoromethyl)-4-fluoro-phenyl]pyrazolo[4,3-b]pyridin-1-yl]methyl]isoxazole]"
12,387 nM,"Cc1nccc(Cn2ncc3ncc(-c4ccc(F)c(C(F)F)c4)cc32)n1 [Example 282, 6-[3-(Difluoromethyl)-4-fluoro-phenyl]-1-[(2-methylpyrimidin-4-yl)methyl]pyrazolo[4,3-b]pyridine]"
13,226 nM,"Cc1cc(Cn2ncc3ncc(-c4ccc(F)c(C(F)F)c4)cc32)ncn1 [Example 280, 6-[3-(Difluoromethyl)-4-fluoro-phenyl]-1-[(6-methylpyrimidin-4-yl)methyl]pyrazolo[4,3-b]pyridine]"
14,12 nM,"Cc1cncc(Cn2ncc3ncc(-c4ccc(F)c(C(F)F)c4)cc32)c1 [Example 200, 6-[3-(Difluoromethyl)-4-fluoro-phenyl]-1-[(5-methyl-3-pyridyl)methyl]pyrazolo[4,3-b]pyridine]"

# Reference: patent US11530210B2, “Substituted heteroaromatic pyrazolo-pyridines and their use as GLUN2B receptor modulators” (JANSSEN PHARMACEUTICA NV, priority 2019, dated 2022)
